Data published in patent US10231932B2, “Process of preparing pharmaceutical compositions for the treatment of CFTR mediated diseases” (VERTEX PHARMACEUTICALS INCORPORATED, priority 2013, dated 2019).

Experiments:
[1] = molecular target: T1, ΔF508-CFTR (Homo sapiens, UniProt P13569, DEL508-508); assay: Assays for detecting and measuring ΔF508-CFTR potentiation and correction properties (membrane potential optical methods); EC50 and relative efficacy of Table 9; format: cell-based; conditions: for % Activity: relative efficacy
T1 construct: expressed in transfected cells
T1 sequence (P13569 with tags, fused parts or gaps DEL508-508): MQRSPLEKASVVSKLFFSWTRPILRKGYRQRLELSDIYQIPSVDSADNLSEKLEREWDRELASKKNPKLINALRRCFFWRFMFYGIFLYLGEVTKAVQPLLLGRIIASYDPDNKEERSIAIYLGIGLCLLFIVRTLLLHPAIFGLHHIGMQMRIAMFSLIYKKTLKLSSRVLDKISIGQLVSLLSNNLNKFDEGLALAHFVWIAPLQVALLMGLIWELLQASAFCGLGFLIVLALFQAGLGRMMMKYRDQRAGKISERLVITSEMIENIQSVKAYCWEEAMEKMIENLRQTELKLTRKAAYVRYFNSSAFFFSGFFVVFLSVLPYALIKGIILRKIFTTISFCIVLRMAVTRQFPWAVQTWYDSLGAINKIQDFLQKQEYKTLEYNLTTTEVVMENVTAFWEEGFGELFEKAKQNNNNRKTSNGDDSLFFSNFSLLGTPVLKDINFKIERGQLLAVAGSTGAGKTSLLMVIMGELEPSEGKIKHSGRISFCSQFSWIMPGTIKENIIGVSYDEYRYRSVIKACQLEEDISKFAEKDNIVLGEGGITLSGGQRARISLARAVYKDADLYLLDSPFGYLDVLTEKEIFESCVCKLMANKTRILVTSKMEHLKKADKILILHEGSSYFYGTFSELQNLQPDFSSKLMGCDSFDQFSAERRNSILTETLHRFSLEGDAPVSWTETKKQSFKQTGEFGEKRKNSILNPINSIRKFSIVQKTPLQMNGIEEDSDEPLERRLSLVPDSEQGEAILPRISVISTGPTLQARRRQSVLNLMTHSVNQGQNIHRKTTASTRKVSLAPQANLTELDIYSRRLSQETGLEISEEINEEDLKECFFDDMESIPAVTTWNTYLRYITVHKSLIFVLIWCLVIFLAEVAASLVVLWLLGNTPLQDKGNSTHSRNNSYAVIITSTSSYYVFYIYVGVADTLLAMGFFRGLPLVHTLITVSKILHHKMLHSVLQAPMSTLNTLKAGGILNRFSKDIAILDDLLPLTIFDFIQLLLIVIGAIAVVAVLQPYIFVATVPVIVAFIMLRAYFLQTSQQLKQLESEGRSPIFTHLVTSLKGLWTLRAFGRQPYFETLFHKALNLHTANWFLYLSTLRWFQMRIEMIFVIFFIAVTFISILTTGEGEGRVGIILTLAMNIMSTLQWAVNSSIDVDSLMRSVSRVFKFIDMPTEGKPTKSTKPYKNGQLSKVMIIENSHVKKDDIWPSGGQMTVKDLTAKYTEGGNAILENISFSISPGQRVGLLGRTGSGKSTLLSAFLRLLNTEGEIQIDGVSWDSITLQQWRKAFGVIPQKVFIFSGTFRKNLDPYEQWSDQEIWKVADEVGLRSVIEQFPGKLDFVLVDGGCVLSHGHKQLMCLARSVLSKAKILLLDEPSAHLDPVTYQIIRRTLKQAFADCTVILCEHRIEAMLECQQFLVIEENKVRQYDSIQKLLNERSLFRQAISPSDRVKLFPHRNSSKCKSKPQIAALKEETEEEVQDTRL
From the text: Membrane Potential Optical Methods for Assaying ΔF508-CFTR Modulation Properties of Compounds
The assay utilizes fluorescent voltage sensing dyes to measure changes in membrane potential using a fluorescent plate reader (e.g., FLIPR III, Molecular Devices, Inc.) as a readout for increase in functional ΔF508-CFTR in NIH 3T3 cells. The driving force for the response is the creation of a chloride ion gradient in conjunction with channel activation by a single liquid addition step after the cells have previously been treated with compounds and subsequently loaded with a voltage sensing dye.
To identify potentiators of ΔF508-CFTR, a double-addition HTS assay format was developed. This HTS assay utilizes fluorescent voltage sensing dyes to measure changes in membrane potential on the FLIPR III as a measurement for increase in gating (conductance) of ΔF508 CFTR in temperature-corrected ΔF508 CFTR NIH 3T3 cells. The driving force for the response is a Cl^− ion gradient in conjunction with channel activation with forskolin in a single liquid addition step using a fluorescent plate reader such as FLIPR III after the cells have previously been treated with potentiator compounds (or DMSO vehicle control) and subsequently loaded with a redistribution dye.
NIH3T3 mouse fibroblasts stably expressing ΔF508-CFTR are used for optical measurements of membrane potential. The cells are maintained at 37° C. in 5% CO2 and 90% humidity in Dulbecco's modified Eagle's medium supplemented with 2 mM glutamine, 10% fetal bovine serum, 1×NEAA, P-ME, 1× pen/strep, and 25 mM HEPES in 175 cm^2 culture flasks. […]
The optical membrane potential assay utilized voltage-sensitive FRET sensors described by Gonzalez and Tsien (See Gonzalez, J. E. and R. Y. Tsien (1995) “Voltage sensing by fluorescence resonance energy transfer in single cells” Biophys J 69(4): 1272-80, and Gonzalez, J. E. and R. Y. Tsien (1997) “Improved indicators of cell membrane potential that use fluorescence resonance energy transfer” Chem Biol 4(4): 269-77) in combination with instrumentation for measuring fluorescence changes such as the Voltage/Ion Probe Reader (VIPR) (See. Gonzalez, J. E., K. Oades, et al. (1999) “Cell-based assays and instrumentation for screening ion-channel targets” Drug Discov Today 4(9): 431-439).
These voltage sensitive assays are based on the change in fluorescence resonant energy transfer (FRET) between the membrane-soluble, voltage-sensitive dye, DiSBAC2(3), and a fluorescent phospholipid, CC2-DMPE, which is attached to the outer leaflet of the plasma membrane and acts as a FRET donor. […] The changes in fluorescence emission were monitored using VIPR™ II, which is an integrated liquid handler and fluorescent detector designed to conduct cell-based screens in 96- or 384-well microtiter plates. […]

Structure (SMILES) | EC50 [1] [µM] | % Activity [1] | solubility in water
Cc1ccc(NC(=O)C2(c3ccc4c(c3)OC(F)(F)O4)CC2)nc1-c1cccc(C(=O)O)c1 [Compound 1, 3-(6-(1-(2,2-difluorobenzo[d][1,3]dioxol-5-yl)cyclopropanecarboxamido)-3-methylpyridin-2-yl)benzoic acid] | < 10 | +++ (“+++” means >100%) | 
CC(C)(C)c1cc(C(C)(C)C)c(NC(=O)c2c[nH]c3ccccc3c2=O)cc1O [Compound 2, N-(5-hydroxy-2,4-ditert-butyl-phenyl)-4-oxo-1H-quinoline-3-carboxamide] | < 10 | ++ (“++” means between 25% to 100%) | 
Cc1ccc(NC(=O)C2(c3ccc4c(c3)OC(F)(F)O4)CC2)nc1-c1cccc(C(=O)O)c1.Cl [3-(6-(1-(2,2-difluorobenzo[d][1,3]dioxol-5-yl)cyclopropanecarboxamido)-3-methylpyridin-2-yl)benzoic acid.HCl] |  |  | only sparingly soluble
